Reference: US10689622B2, “Culture medium for proliferating stem cell, which contains sulfated compound” (AJINOMOTO CO., INC., priority 2012, dated 2020)

Experiments:
bFGF [1] = target: T1, bFGF (Homo sapiens, UniProt P09038); experiment: Evaluation of bFGF stabilization in Lonza serum-free medium (ELISA); type: biochemical; details: for bFGF concentration relative to that of 4° C. control (ELISA): Lonza serum-free medium, 37° C. for 7 days; for effectiveness ELISA: effectiveness in ELISA evaluation of mesenchymal stem cells (medium), 4° C. control ratio
T1 construct: purchased Lonza (via TAKARA BIO INC.) Ser. No. 00/190,632
T1 sequence (P09038 143-288): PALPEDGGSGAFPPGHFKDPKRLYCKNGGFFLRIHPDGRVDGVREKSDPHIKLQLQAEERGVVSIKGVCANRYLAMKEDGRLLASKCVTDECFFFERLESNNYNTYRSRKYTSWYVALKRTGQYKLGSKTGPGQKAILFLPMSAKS
Method: (§1) A test compound was dissolved in phosphate buffered saline, and diluted 10-fold with a serum-free medium to adjust to the concentrations shown in Table 4 (test sample). The test sample was left standing in a tightly sealed Falcon tube at 37° C. for 7 days (Tables 5 to 8-2) or 3 days (Table 8-3), and the bFGF concentration was quantified by ELISA measurement. A phosphate buffered saline without a test compound was diluted 10-fold with a serum-free medium, and left standing at 37° C. or 4° C. for 7 days or 3 days, and used as a control.
(§2) A commercially available measurement kit (human bFGF ELISA kit, ELH-bFGF-001, Ray Biotech) was used for quantification of bFGF in the medium. The measurement procedures followed the protocol attached to the kit. The bFGF concentration of the serum-free medium was calculated from the analytical curve (conversion formula) drawn from the absorbance of an analytical curve standard solution. The evaluation criteria of Tables 5-8 are as follows:
as §1, with “Table 13” for “Table 4”, “7 days,” for “7 days (Tables 5 to 8-2) or 3 days (Table 8-3),”, “7” for “7 days or 3”
as §2, with “Table 13” for “Tables 5-8”, “follows: […]” for “follows:”

bFGF [2] = target: T1, bFGF; experiment: Evaluation of bFGF stabilization in Essential 8 medium (ELISA); type: biochemical; details: 37° C. for 7 days
Method: as §2
(§3) A test compound was dissolved in phosphate buffered saline, and diluted 10-fold with a serum-free medium to adjust the concentration shown in Table 4 (test sample). The test sample was left standing in a tightly sealed Falcon tube at 37° C. for 7 days, and the bFGF concentration was quantified by ELISA measurement. A phosphate buffered saline without a test compound was diluted 10-fold with Essential 8 medium or ReproFF2 medium, and left standing at 37° C. or 4° C. for 7 days, and used as a control.
as §2, with “Table 13” for “Tables 5-8”
as §3, with “Table 12” for “Table 4”

[3] = Measurement of content level of sulfur in test compound (ICP); type: physicochemical; details: ICPS-8100, evaluation samples containing 0.01 wt % test compound
Source text: (§4) The content level of sulfur in the sulfated saccharide is generally not less than 5 wt %, preferably not less than 10 wt %, more preferably not less than 15 wt %, and the upper limit is generally not more than 40 wt %, preferably not more than 35 wt %, more preferably not more than 30 wt %. […] Here, the content level of sulfur is a proportion in wt % of sulfur derived only from the sulfate group in sulfated saccharides, which can be measured by a method known in the field (e.g., rhodizonate method, elemental analysis or luminescent spectral analysis).
as §4, with “polymer” for “saccharide”, “wt” for “wt %, preferably not more than 35 wt %, more preferably not more than 30 wt”, “in” for “derived only from”, “the” for “the sulfate group in”, “polymer,” for “saccharides,”, “such as” for “(e.g.,”
The relationship between the content level of sulfur in a test compound (sulfur content) and the cell proliferation promoting effect was examined. The sulfur content was measured using ICPS-8100 manufactured by SHIMADZU CORPORATION and analyzed using ICPS-8000 series Ver1.03. As the reference standard of sulfur, the standard for ICP-MS manufactured by Accu Standard was used. Sulfur reference standard solutions (0, 1, 10, 30, 50 ppm) were prepared, and the sulfur content of the evaluation samples containing 0.01 wt % test compound was measured by an analytical curve method.

[4] = system: Human bone marrow-derived mesenchymal stem cells; experiment: Mesenchymal stem cell proliferation system (cell number by DNA quantification); details: growth of mesenchymal stem cell, control ratio

effectiveness ELISA (bFGF [1]) | concentration showing a suppressive effect on a decrease in the bFGF concentration of the medium (bFGF [2]) | sulfur content Found (inorganic analysis) [3] [wt %] | Substance | bFGF concentration relative to that of 4° C. control (ELISA) (bFGF [1]; test compound 25 ng/ml) | bFGF concentration relative to that of 4° C. control (ELISA) (bFGF [1]; test compound 250 ng/ml) | bFGF concentration relative to that of 4° C. control (ELISA) (bFGF [1]; test compound 25 μg/ml) | bFGF concentration relative to that of 4° C. control (ELISA) (bFGF [1]; test compound 250 μg/ml) | bFGF concentration relative to that of 4° C. control (ELISA) (bFGF [2]; test compound 250 pg/ml) | bFGF concentration relative to that of 4° C. control (ELISA) (bFGF [2]; test compound 25 ng/ml) | bFGF concentration relative to that of 4° C. control (ELISA) (bFGF [2]; test compound 250 ng/ml) | bFGF concentration relative to that of 4° C. control (ELISA) (bFGF [2]; test compound 25 μg/ml) | bFGF concentration relative to that of 4° C. control (ELISA) (bFGF [2]; test compound 250 μg/ml) | effectiveness cells [4]
+ (+ 30%<) | not less than 2.5 mg/ml | 23 | glucose SO3Na | x (bFGF concentration was less than 10% relative to that of 4 °C control) | x (bFGF concentration was less than 10% relative to that of 4 °C control) | x (bFGF concentration was less than 10% relative to that of 4 °C control) | − (bFGF concentration was not less than 10% and less than 30% relative to that of 4 °C control) | x (bFGF concentration was less than 10% relative to that of 4 °C control) | x (bFGF concentration was less than 10% relative to that of 4 °C control) | x (bFGF concentration was less than 10% relative to that of 4 °C control) | +++ (bFGF concentration was not less than 70% relative to that of 4 °C control) | +++ (bFGF concentration was not less than 70% relative to that of 4 °C control) | 
+++ (+++ 70%<) | not less than 250 μg/ml | 18 | stachyose SO3Na | x (bFGF concentration was less than 10% relative to that of 4 °C control) | − (bFGF concentration was not less than 10% and less than 30% relative to that of 4 °C control) | +++ (bFGF concentration was not less than 70% relative to that of 4 °C control) | +++ (bFGF concentration was not less than 70% relative to that of 4 °C control) | x (bFGF concentration was less than 10% relative to that of 4 °C control) | x (bFGF concentration was less than 10% relative to that of 4 °C control) | x (bFGF concentration was less than 10% relative to that of 4 °C control) | x (bFGF concentration was less than 10% relative to that of 4 °C control) | ++ (bFGF concentration was not less than 50% and less than 70% relative to that of 4 °C control) | 
++ (++ 50%<) | not less than 2.5 μg/ml | 14 | α-cyclodextrin SO3Na [α-CD•SO3Na] | x (bFGF concentration was less than 10% relative to that of 4 °C control) | + (bFGF concentration was not less than 30% and less than 50% relative to that of 4 °C control) | − (bFGF concentration was not less than 10% and less than 30% relative to that of 4 °C control) | + (bFGF concentration was not less than 30% and less than 50% relative to that of 4 °C control) | x (bFGF concentration was less than 10% relative to that of 4 °C control) | x (bFGF concentration was less than 10% relative to that of 4 °C control) | x (bFGF concentration was less than 10% relative to that of 4 °C control) | +++ (bFGF concentration was not less than 70% relative to that of 4 °C control) | +++ (bFGF concentration was not less than 70% relative to that of 4 °C control) | 

Substance | effectiveness ELISA (bFGF [1]) | concentration showing a suppressive effect on a decrease in the bFGF concentration of the medium (bFGF [2]) | sulfur content Found (inorganic analysis) [3] [wt %] | bFGF concentration relative to that of 4° C. control (ELISA) (bFGF [1]; test compound 25 ng/ml) | bFGF concentration relative to that of 4° C. control (ELISA) (bFGF [1]; test compound 250 ng/ml) | bFGF concentration relative to that of 4° C. control (ELISA) (bFGF [1]; test compound 25 μg/ml) | bFGF concentration relative to that of 4° C. control (ELISA) (bFGF [1]; test compound 250 μg/ml) | bFGF concentration relative to that of 4° C. control (ELISA) (bFGF [2]; test compound 250 pg/ml) | bFGF concentration relative to that of 4° C. control (ELISA) (bFGF [2]; test compound 25 ng/ml) | bFGF concentration relative to that of 4° C. control (ELISA) (bFGF [2]; test compound 250 ng/ml) | bFGF concentration relative to that of 4° C. control (ELISA) (bFGF [2]; test compound 25 μg/ml) | bFGF concentration relative to that of 4° C. control (ELISA) (bFGF [2]; test compound 250 μg/ml) | effectiveness cells [4]
xylitol SO3Na | +++ (+++ 70%<) |  | 25 | x (bFGF concentration was less than 10% relative to that of 4 °C control) | x (bFGF concentration was less than 10% relative to that of 4 °C control) | x (bFGF concentration was less than 10% relative to that of 4 °C control) | ++ (bFGF concentration was not less than 50% and less than 70% relative to that of 4 °C control) |  |  |  |  |  | ◯ (◯ not leas than 100%)
